Laboratory results from ChEMBL document CHEMBL1201862, “PubChem BioAssay data set” (2004).
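Exposure lasted 48 hours, with cells grown in 96-well plates and compounds tested at five concentrations. The concentration for 50% growth inhibition is given as GI50.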 Activity calls are given as the source filed them. No stated cut-off is given here; in the data, active = GI50 up to about 1.1 µM and inactive = higher.

Key:
Experiment in all cases: NCI-60 cell line screen, 48 h
[1] = tested on: 786-0
[2] = tested on: A498
[3] = tested on: A549
[4] = tested on: BT-549
[5] = tested on: CAKI-1
[6] = tested on: CCRF-CEM
[7] = tested on: COLO 205
[8] = tested on: DU-145
[9] = tested on: EKVX
[10] = tested on: HCC 2998
[11] = tested on: HCT-116
[12] = tested on: HCT-15
[13] = tested on: HL-60
[14] = tested on: HOP-62
[15] = tested on: HOP-92
[16] = tested on: HT-29
[17] = tested on: Hs-578T
[18] = tested on: IGROV-1
[19] = tested on: KM12
[20] = tested on: LOX IMVI
[21] = tested on: M14
[22] = tested on: MCF7
[23] = tested on: MDA-MB-231
[24] = tested on: MDA-MB-435
[25] = tested on: MDA-N
[26] = tested on: MOLT-4
[27] = tested on: NCI-H226
[28] = tested on: NCI-H23
[29] = tested on: NCI-H460
[30] = tested on: NCI-H522
[31] = tested on: NCI/ADR-RES
[32] = tested on: OVCAR-3
[33] = tested on: OVCAR-5
[34] = tested on: OVCAR-8
[35] = tested on: PC-3
[36] = tested on: RXF 393
[37] = tested on: SF-268
[38] = tested on: SF-295
[39] = tested on: SF-539
[40] = tested on: SK-MEL-28
[41] = tested on: SK-MEL-2
[42] = tested on: SK-MEL-5
[43] = tested on: SK-OV-3
[44] = tested on: SN12C
[45] = tested on: SNB-19
[46] = tested on: SNB-75
[47] = tested on: SW-620
[48] = tested on: T47D
[49] = tested on: TK-10
[50] = tested on: U-251
[51] = tested on: UACC-257
[52] = tested on: UACC-62
[53] = tested on: UO-31
[54] = tested on: ACHN
[55] = tested on: K562
[56] = tested on: Malme-3M
[57] = tested on: OVCAR-4
[58] = tested on: RPMI-8226
[59] = tested on: SR

Measured: GI50

COc1ccc2nc3cc(Cl)ccc3c(NCCCN3CCN(CCCNc4ccc5nnn6c7ccccc7c(=O)c4c56)CC3)c2c1
inactive: [2] > 25 µM | [4] 5.24 µM | [5] > 5.62 µM | [8] > 25 µM | [9] > 17 µM | [13] 1.14 µM | [14] > 25 µM | [15] > 25 µM | [17] > 25 µM | [21] > 25 µM | [23] 6.32 µM | [24] 3.25 µM | [25] 1.65 µM | [27] > 25 µM | [28] 19.5 µM | [31] 4.89 µM | [32] > 25 µM | [33] > 21.2 µM | [34] 1.42 µM | [35] > 6.01 µM | [37] > 7.36 µM | [38] 2.37 µM | [40] > 25 µM | [41] > 25 µM | [42] > 25 µM | [43] > 25 µM | [44] 1.81 µM | [45] > 25 µM | [46] > 25 µM | [48] > 25 µM | [49] > 10.3 µM | [50] 1.32 µM | [51] 2.51 µM | [52] > 25 µM | [53] > 7.5 µM
active: [1] 0.646 µM | [3] 0.172 µM | [6] 0.17 µM | [7] 0.923 µM | [10] 0.303 µM | [11] 0.0191 µM | [16] 0.0251 µM | [18] 0.309 µM | [19] 0.277 µM | [20] 0.512 µM | [22] 0.225 µM | [26] 0.0743 µM | [29] 0.0995 µM | [30] 0.391 µM | [36] 0.948 µM | [39] 0.21 µM | [47] 0.0458 µM
0.179 µM: [12]

CN/C(=N\c1ccc(OC)c2ccccc12)SC
inactive: [1] > 10 µM | [3] > 10 µM | [54] > 10 µM | [4] > 10 µM | [5] > 10 µM | [6] > 10 µM | [7] > 10 µM | [8] > 10 µM | [10] > 10 µM | [11] > 10 µM | [13] > 10 µM | [14] > 10 µM | [15] > 10 µM | [16] > 10 µM | [17] > 10 µM | [18] > 10 µM | [55] > 10 µM | [19] > 10 µM | [20] > 10 µM | [21] > 10 µM | [22] > 10 µM | [23] > 10 µM | [24] > 10 µM | [25] > 10 µM | [26] > 10 µM | [56] > 10 µM | [28] > 10 µM | [30] > 10 µM | [31] > 10 µM | [32] > 10 µM | [57] > 10 µM | [33] 2.86 µM | [34] > 10 µM | [35] > 10 µM | [58] > 10 µM | [37] > 10 µM | [38] 7.43 µM | [39] > 10 µM | [40] > 10 µM | [42] > 10 µM | [43] > 10 µM | [44] > 10 µM | [45] > 10 µM | [46] > 10 µM | [59] > 10 µM | [47] > 10 µM | [48] > 10 µM | [49] > 10 µM | [50] > 10 µM | [51] > 10 µM | [52] > 10 µM
> 10 µM: [12]

CCOC(=O)Cc1c(C(=O)OCC)[n+]([O-])c2cc(Cl)c(Cl)cc2[n+]1[O-]
active: [18] 1.01 µM | [58] 0.431 µM | [59] 0.336 µM | [48] 0.982 µM
1.42 µM: [12]
inactive: [1] 1.54 µM | [2] 2.31 µM | [3] 1.76 µM | [54] 1.76 µM | [4] 2.45 µM | [5] 2.97 µM | [6] 3.13 µM | [7] 1.73 µM | [8] 1.69 µM | [9] 3.37 µM | [10] 1.99 µM | [11] 1.77 µM | [13] 2.81 µM | [14] 1.95 µM | [16] 1.94 µM | [17] 2.27 µM | [55] 2.62 µM | [19] 1.32 µM | [20] 2 µM | [21] 2.29 µM | [22] 1.57 µM | [23] 2.69 µM | [24] 2.77 µM | [25] 2.62 µM | [26] 1.56 µM | [56] 1.4 µM | [28] 2.18 µM | [29] 1.45 µM | [30] 1.84 µM | [31] 2.78 µM | [32] 1.87 µM | [57] 1.89 µM | [33] 2.58 µM | [34] 2.34 µM | [35] 2.1 µM | [36] 2.12 µM | [37] 2.44 µM | [38] 3.66 µM | [39] 2.08 µM | [40] 4.68 µM | [41] 2.59 µM | [42] 1.47 µM | [43] 3.77 µM | [44] 2.49 µM | [45] 3.5 µM | [46] 1.53 µM | [47] 1.52 µM | [49] 1.28 µM | [50] 2.96 µM | [51] 2.22 µM | [52] 2.18 µM | [53] 1.77 µM
